Values of other authors in US4782898A, “Determining residual oil saturation using carbon 14 labeled carbon dioxide” (priority 1986, dated 1988).

Row | distribution coefficient, Ki (ratio of concentration of tracer in the oil phase to that in the water phase) | SMILES
1 | about 2 | O=C=O [CO2, carbon dioxide]
2 | about 2 | O=[14C]=O [carbon 14 labeled CO2]
